This note sets out measurements from US10364245B2 (CHIESI FARMACEUTICI S.p.A., priority 2017, dated 2019).

Structures are written as SMILES. Structures can show the parent of a compound that is named as a salt. Bounds are passed on as bounds.

One experiment concerns the target T1, p38 alpha (Homo sapiens, UniProt Q16539).
T1 construct: purchased Invitrogen PV3304
In words: P38 alpha enzyme inhibition assay (Alphascreen kinase activity assay). The format is biochemical. The following applies: 100 pM p38 alpha, 2 hours preincubation at 25° C., 250 μM ATP, ATF-2 fusion protein; read-out: p38α inhibition. In short, it runs like this:
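100 pM p38 alpha preincubated 2 h at 25 °C with compound and 0.3 μg/ml ATF-2 fusion substrate (HEPES pH 7.5, MgCl2, 1% DMSO). Reaction started with 250 μM ATP, run 1 h at 25 °C, stopped with EDTA; phospho-ATF2 detected by AlphaScreen luminescence. IC50 from concentration-response curves.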

Experiment [1] has as its system Peripheral Blood Mononuclear Cells (PBMCs), TNFα release. In words: LPS-stimulated PBMC TNFα release assay. The format is cell-based. The following applies: human PBMC, LPS (10 ng/ml), 18 h, compound 1 h before LPS; read-out: LPS-stimulated PBMC TNFα release inhibition. In short, it runs like this:
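Human PBMCs from healthy donors, serum-starved 3 h, then pre-incubated 1 h at 37 °C with compound in 1% FBS medium before LPS (10 ng/ml) for 18 h. Supernatant TNFα measured by MSD; IC50 from dose-response as % inhibition of control, at least three experiments.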

T1 sequence (Q16539 whole entry): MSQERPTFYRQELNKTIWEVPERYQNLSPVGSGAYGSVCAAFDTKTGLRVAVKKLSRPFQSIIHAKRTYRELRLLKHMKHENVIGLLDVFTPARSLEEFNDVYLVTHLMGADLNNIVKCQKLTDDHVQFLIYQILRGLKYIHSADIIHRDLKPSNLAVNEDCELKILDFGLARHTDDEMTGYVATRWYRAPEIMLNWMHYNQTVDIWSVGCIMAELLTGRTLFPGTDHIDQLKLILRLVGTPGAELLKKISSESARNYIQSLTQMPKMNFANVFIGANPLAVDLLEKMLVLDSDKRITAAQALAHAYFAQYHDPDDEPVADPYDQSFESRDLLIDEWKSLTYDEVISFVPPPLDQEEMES

Regarding `COCC(C)(C)c1nnc2ccc(O[C@@H]3CC[C@H](NC(=O)Nc4cc(C(=O)NCC(C)(C)N(C)C)nc(C(C)(C)C)c4)c4ccccc43)cn12` [Example 196, 6-(tert-butyl)-N-(2-(dimethylamino)-2-methylpropyl)-4-(3-((1S,4R)-4-((3-(1-methoxy-2-methylpropan-2-yl)-[1,2,4]triazolo[4,3-a]pyridin-6-yl)oxy)-1,2,3,4-tetrahydronaphthalen-1-yl)ureido)picolinamide], the IC50 at p38 alpha was 1 to 10 nM; in experiment [1], over 5 nM.

`CC(C)(C)c1cc(NC(=O)N[C@H]2CC[C@@H](Oc3ccc4nnc(C(C)(C)C)n4c3)c3ccccc32)cc(C(=O)NCCN2CC(O)C2)n1` [Example 197, 6-(tert-butyl)-4-(3-((1S,4R)-4-((3-(tert-butyl)-[1,2,4]triazolo[4,3-a]pyridin-6-yl)oxy)-1,2,3,4-tetrahydronaphthalen-1-yl)ureido)-N-(2-(3-hydroxyazetidin-1-yl)ethyl)picolinamide]: the IC50 on p38 alpha is under 1 nM; in experiment [1] it was over 5 nM.

Take `CN1CCN(C(C)(C)c2nnc3ccc(O[C@@H]4CC[C@H](NC(=O)Nc5cc(CO)nc(C(C)(C)C)c5)c5ccccc54)cn23)CC1` [Example 198, 1-(2-(tert-butyl)-6-(hydroxymethyl)pyridin-4-yl)-3-((1S,4R)-4-((3-(2-(4-methylpiperazin-1-yl)propan-2-yl)-[1,2,4]triazolo[4,3-a]pyridin-6-yl)oxy)-1,2,3,4-tetrahydronaphthalen-1-yl)urea]: the IC50 was under 1 nM at p38 alpha and over 5 nM in experiment [1].

With `CN(C)CCNC(=O)c1cc(NC(=O)N[C@H]2CC[C@@H](Oc3ccc4nnc(C(C)(C)N5CCN(C)CC5)n4c3)c3ccccc32)cc(C(C)(C)C)n1` [Example 199, 6-(tert-Butyl)-N-(2-(dimethylamino)ethyl)-4-(3-((1S,4R)-4-((3-(2-(4-methylpiperazin-1-yl)propan-2-yl)-[1,2,4]triazolo[4,3-a]pyridin-6-yl)oxy)-1,2,3,4-tetrahydronaphthalen-1-yl)ureido)picolinamide formate salt], the IC50 was 1 to 10 nM on p38 alpha and over 5 nM in experiment [1].

Turning to `CN1CCN(C(C)(C)c2nnc3ccc(O[C@@H]4CC[C@H](NC(=O)Nc5cc(C(=O)NCCO)nc(C(C)(C)C)c5)c5ccccc54)cn23)CC1` [Example 200, 6-(tert-Butyl)-N-(2-hydroxyethyl)-4-(3-((1S,4R)-4-((3-(2-(4-methylpiperazin-1-yl)propan-2-yl)-[1,2,4]triazolo[4,3-a]pyridin-6-yl)oxy)-1,2,3,4-tetrahydronaphthalen-1-yl)ureido)picolinamide formate salt], the results for the IC50 (on p38 alpha; in experiment [1]) were under 1 nM and over 5 nM, respectively.

In the case of `CC[C@H](C)c1nnc2ccc(O[C@@H]3CC[C@H](NC(=O)Nc4cc(C(=O)NCCN(C)C)nc(C(C)(C)C)c4)c4ccccc43)cn12` [Example 201, 6-(tert-Butyl)-4-(3-((1S,4R)-4-((3-((S)-sec-butyl)-[1,2,4]triazolo[4,3-a]pyridin-6-yl)oxy)-1,2,3,4-tetrahydronaphthalen-1-yl)ureido)-N-(2-(dimethylamino)ethyl)-picolinamide formate salt], the results for the IC50 (on p38 alpha; in experiment [1]) were under 1 nM and 1 to 5 nM, respectively.

For the molecule `CC[C@H](C)c1nnc2ccc(O[C@@H]3CC[C@H](NC(=O)Nc4cc(C(=O)NCC(C)(C)N(C)C)nc(C(C)(C)C)c4)c4ccccc43)cn12` [Example 202, 6-(tert-Butyl)-4-(3-((1S,4R)-4-((3-((S)-sec-butyl)-[1,2,4]triazolo[4,3-a]pyridin-6-yl)oxy)-1,2,3,4-tetrahydronaphthalen-1-yl)ureido)-N-(2-(dimethylamino)-2-methylpropyl)-picolinamide formate salt], the IC50 is 1 to 10 nM on p38 alpha and 1 to 5 nM in experiment [1].

Consider `CCN(CC)c1nnc2ccc(O[C@@H]3CC[C@H](NC(=O)Nc4cc(C(=O)NCC(C)(C)N(C)C)nc(C(C)(C)C)c4)c4ccccc43)cn12` [Example 204, 6-(tert-Butyl)-4-(3-((1S,4R)-4-((3-(diethylamino)-[1,2,4]triazolo[4,3-a]pyridin-6-yl)oxy)-1,2,3,4-tetrahydronaphthalen-1-yl)ureido)-N-(2-(dimethylamino)-2-methylpropyl)-picolinamide formate salt], for which the IC50 on p38 alpha is under 1 nM; in experiment [1] it was 1 to 5 nM.

On to `CCN(C)CCNC(=O)c1cc(NC(=O)N[C@H]2CC[C@@H](Oc3ccc4nnc(N(CC)CC)n4c3)c3ccccc32)cc(C(C)(C)C)n1` [Example 205, 6-(tert-Butyl)-4-(3-((1S,4R)-4-((3-(diethylamino)-[1,2,4]triazolo[4,3-a]pyridin-6-yl)oxy)-1,2,3,4-tetra-hydronaphthalen-1-yl)ureido)-N-(2-(ethyl(methyl)amino)-ethyl)picolinamide formate salt], for which the values for the IC50 (on p38 alpha; in experiment [1]) were under 1 nM and 1 to 5 nM, respectively.

Take `CCC(C)(C)c1nnc2ccc(O[C@@H]3CC[C@H](NC(=O)Nc4cc(C(=O)NCCN(C)C)nc(C(C)(C)C)c4)c4ccccc43)cn12` [Example 206, 6-(tert-butyl)-N-(2-(dimethylamino)ethyl)-4-(3-((1S,4R)-4-((3-(tert-pentyl)-[1,2,4]triazolo[4,3-a]pyridin-6-yl)oxy)-1,2,3,4-tetrahydronaphthalen-1-yl)ureido)picolinamide]: the IC50 on p38 alpha was under 1 nM; in experiment [1], 1 to 5 nM.

As for `CCC(CC)c1nnc2ccc(O[C@@H]3CC[C@H](NC(=O)Nc4cc(C(=O)NCCN(C)C)nc(C(C)(C)C)c4)c4ccccc43)cn12` [Example 207, 6-(tert-butyl)-N-(2-(dimethylamino)ethyl)-4-(3-((1S,4R)-4-((3-(pentan-3-yl)-[1,2,4]triazolo[4,3-a]pyridin-6-yl)oxy)-1,2,3,4-tetrahydronaphthalen-1-yl)ureido)picolinamide], the IC50 (at p38 alpha; in experiment [1]) was under 1 nM each time.

Consider `CN(CCO)CCNC(=O)c1cc(C(C)(C)C)cc(NC(=O)N[C@H]2CC[C@@H](Oc3ccc4nnc(C(C)(C)C)n4c3)c3ccccc32)n1` [Example 208, 4-(tert-butyl)-6-(3-((1S,4R)-4-((3-(tert-butyl)-[1,2,4]triazolo[4,3-a]pyridin-6-yl)oxy)-1,2,3,4-tetrahydronaphthalen-1-yl)ureido)-N-(2-((2-hydroxyethyl)(methyl)-amino)ethyl)picolinamide formate salt], for which the IC50 at p38 alpha was under 1 nM; in experiment [1] it was over 5 nM.

For `CC(C)(C)c1cc(NC(=O)N[C@H]2CC[C@@H](Oc3ccc4nnc(C(C)(C)C)n4c3)c3ccccc32)nc(C(=O)NCCN2CCCOCC2)c1` [Example 209, N-(2-(1,4-oxazepan-4-yl)ethyl)-4-(tert-butyl)-6-(3-((1S,4R)-4-((3-(tert-butyl)-[1,2,4]triazolo[4,3-a]pyridin-6-yl)oxy)-1,2,3,4-tetrahydronaphthalen-1-yl)ureido)picolinamide formate salt], the IC50 (on p38 alpha; in experiment [1]) was under 1 nM in each case.

Consider `COC1CN(CCNC(=O)c2cc(C(C)(C)C)cc(NC(=O)N[C@H]3CC[C@@H](Oc4ccc5nnc(C(C)(C)C)n5c4)c4ccccc43)n2)C1` [Example 210, 4-(tert-butyl)-6-(3-((1S,4R)-4-((3-(tert-butyl)-[1,2,4]triazolo[4,3-a]pyridin-6-yl)oxy)-1,2,3,4-tetrahydronaphthalen-1-yl)ureido)-N-(2-(3-methoxyazetidin-1-yl)ethyl)picolinamide formate salt], for which the IC50 was under 1 nM on p38 alpha and 1 to 5 nM in experiment [1].

With `CC(C)(C)c1cc(NC(=O)N[C@H]2CC[C@@H](Oc3ccc4nnc(C(C)(C)C)n4c3)c3ccccc32)nc(C(=O)NCCN2CCC(O)CC2)c1` [Example 211, 4-(tert-butyl)-6-(3-((1S,4R)-4-((3-(tert-butyl)-[1,2,4]triazolo[4,3-a]pyridin-6-yl)oxy)-1,2,3,4-tetrahydronaphthalen-1-yl)ureido)-N-(-(2-(4-hydroxypiperidin-1-yl)ethyl)picolinamide formate salt], the IC50 at p38 alpha is under 1 nM; in experiment [1], over 5 nM.

As to `CN1CCC[C@@]1(C)c1nnc2ccc(O[C@@H]3CC[C@H](NC(=O)Nc4cc(NS(C)(=O)=O)nc(C(C)(C)C)c4)c4ccccc43)cn12` [Example 212, N-(6-(tert-Butyl)-4-(3-((1S,4R)-4-((3-((S)-1,2-dimethylpyrrolidin-2-yl)-[1,2,4]triazolo[4,3-a]pyridin-6-yl)oxy)-1,2,3,4-tetrahydronaphthalen-1-yl)ureido)pyridin-2-yl)methanesulfonamide], the IC50 was under 1 nM on p38 alpha and 1 to 5 nM in experiment [1].

For the molecule `CCS(=O)(=O)Nc1cc(NC(=O)N[C@H]2CC[C@@H](Oc3ccc4nnc([C@]5(C)CCCN5C)n4c3)c3ccccc32)cc(C(C)(C)C)n1` [Example 213, N-(6-(tert-Butyl)-4-(3-((1S,4R)-4-((3-((S)-1,2-dimethylpyrrolidin-2-yl)-[1,2,4]triazolo[4,3-a]pyridin-6-yl)oxy)-1,2,3,4-tetrahydronaphthalen-1-yl)ureido)pyridin-2-yl)ethanesulfonamide], the IC50 on p38 alpha is under 1 nM; in experiment [1], 1 to 5 nM.

For `CN(C)CCNC(=O)c1nc(NC(=O)N[C@H]2CC[C@@H](Oc3ccc4nnc([C@@H]5COCCN5C)n4c3)c3ccccc32)cc(C(C)(C)C)n1` [Example 214, 4-(tert-Butyl)-N-(2-(dimethylamino)ethyl)-6-(3-((1S,4R)-4-((3-((R)-4-methylmorpholin-3-yl)-[1,2,4]triazolo[4,3-a]pyridin-6-yl)oxy)-1,2,3,4-tetrahydronaphthalen-1-yl)ureido)pyrimidine-2-carboxamide], the IC50 is 1 to 10 nM on p38 alpha and over 5 nM in experiment [1].
